Assay results: PubChem BioAssay (NCI)
“And” between values parts separate entries of the source, which are not always exact repeats. Equal values may be shown once.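 Growth conditions: 96-well plates. Treatment: test compound, 48 hours, 5 concentrations. Analysis: linear interpolation between bracketing concentrations; unreached endpoints set to highest concentration. Abbreviation: GI50, concentration required for 50% inhibition of growth. At the TGI there is no net growth.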

Legend:
Experiment in all cases: NCI anticancer screen, dose series, 48 h
MDA-MB-435 = system: MDA-MB-435
SK-MEL-28 melanoma = system: SK-MEL-28 melanoma
MOLT-4 leukemia = system: MOLT-4 leukemia
DU-145 prostate = system: DU-145 prostate
HT29 colon = system: HT29 colon
ACHN renal = system: ACHN renal
NCI-H226 lung = system: NCI-H226 lung
SW-620 colon = system: SW-620 colon
HS 578T breast = system: HS 578T breast
SK-MEL-2 melanoma = system: SK-MEL-2 melanoma

SMILES	GI50 (MDA-MB-435)	TGI (MDA-MB-435)	GI50 (SK-MEL-28 melanoma)	TGI (SK-MEL-28 melanoma) [µM]	GI50 (MOLT-4 leukemia)	TGI (MOLT-4 leukemia) [µM]	GI50 (DU-145 prostate)	TGI (DU-145 prostate) [µM]	GI50 (HT29 colon)	TGI (HT29 colon) [µM]	GI50 (ACHN renal)	TGI (ACHN renal) [µM]	GI50 (NCI-H226 lung)	TGI (NCI-H226 lung) [µM]	GI50 (SW-620 colon)	TGI (SW-620 colon) [µM]	GI50 (HS 578T breast)	TGI (HS 578T breast)	GI50 (SK-MEL-2 melanoma)	TGI (SK-MEL-2 melanoma) [µM]
C/C=C(\C)C(=O)O[C@H]1C=CC(=O)O[C@H]1COC(=O)[C@H](C)O	5.74 µM	22.4 µM	3.53 µM	11.5	1.95 µM	5.22	9.17 µM	22.4	3.76 µM	17.4	4.38 µM	16.6	12.4 µM	31.5	4.28 µM	15.1	7.37 µM	26 µM	15.3 µM	41.4
Cc1[nH]nc2ncc(C(=O)N3CCC[C@H]3c3ccc(Cl)cc3)cc12	98.1 µM	> 100 µM	> 100 µM	> 100	72.1 µM	> 100	> 100 µM	> 100	> 100 µM	> 100	36.3 µM	> 100	64.1 µM	> 100	76 µM	> 100	> 100 µM	> 100 µM	> 100 µM	> 100
COC(=O)[C@@H](C)C[C@H](Cc1ccccc1)NC(=O)c1csc([C@@H](C[C@H](C(C)C)N(C)C(=O)[C@@H](NC(=O)[C@H]2CCCN2C)C2CC2)OC(C)=O)n1	< 0.0025 µM	0.00049 µM and < 0.0025 µM	0.0324 µM		0.00316 µM and 0.0025 µM	> 25	0.000446 µM and 0.0025 µM	> 25	0.000503 µM and 0.0025 µM	> 25	0.00419 µM and 0.0025 µM	> 25		> 25	0.000508 µM and 0.0025 µM	> 25	0.00186 µM		0.000505 µM	
CC/C=C\C[C@H](O)C/C=C1/C(=O)C=C[C@@H]1C/C=C\CCCCO	3.48 µM	15.8 µM	2.39 µM	6.87	2.65 µM	11.1	4 µM	15.2	2.4 µM	5.62	1.8 µM	3.66	2.24 µM	4.76	2.98 µM	15.2	9.24 µM	> 100 µM	5.96 µM	22.6
CC(C)Cc1ccc(C(C)C(=O)NCc2ccc(Cn3c(=O)sn(CCCI)c3=O)cc2)cc1 (stereo not given)	0.485 µM	1.77 µM	1.2 µM	2.46	0.511 µM	> 28.3	0.861 µM	2.12	0.238 µM	0.75	0.233 µM	0.633	0.884 µM	2.32	0.259 µM	0.75	0.653 µM	1.83 µM	1.34 µM	2.88
O=C(O)Cc1ccc(N=Nc2c(O)c(C(=O)O)cc3ccccc23)cc1		> 100 µM		> 100		> 100		> 100		> 100		> 100		> 100		> 100		> 100 µM		> 100
O=S(=O)(NCCCNc1cc(-c2cn(-c3ccccc3)nc2-c2cccc(O)c2)ccn1)c1ccc(Br)cc1	1.7 µM	3.53 µM	1.97 µM	4.31	1.13 µM	3.73	2.45 µM	8.08	0.639 µM	2.35	2.97 µM	15.4	2.32 µM	8.66	1.62 µM	3.65	1.16 µM	4.82 µM	1.95 µM	3.84
Cc1ccccc1C(C(=O)NC1CCCCC1)N(C(=O)CNc1ccc(C#N)cc1)c1cccc(F)c1 (stereo not given)	> 72.4 µM	> 100 µM	32.4 µM	> 100	> 100 µM	> 100	64.4 µM	> 100	> 100 µM	> 100	11.7 µM	> 100	14.1 µM	> 94.5	> 100 µM	> 100	7.05 µM	67.4 µM	13.1 µM	32.5
O=C1CC(N2C(=O)/C(=C/C(Cl)=C\c3ccc([N+](=O)[O-])cc3)SC2=S)C(=O)N1c1ccc(O)cc1 (stereo not given)	2.01 µM	4.34 µM	1.95 µM	4.2	0.544 µM	15.3	1.72 µM	3.37	0.847 µM	8.78	1.36 µM	2.76	2.41 µM	6.82	0.684 µM	2.28	2.8 µM	12.6 µM	2.74 µM	7.83
Nc1nn(C(=O)Nc2c(F)cccc2F)c2ccccc12	54.9 µM	> 100 µM	56.3 µM	> 100	32.7 µM	> 100	62.3 µM	> 100	74.6 µM	> 100	50.1 µM	> 100	98.5 µM	> 100	38.3 µM	> 100	73 µM	> 100 µM	> 100 µM	> 100
COc1ccc(Cn2cc3c(c2-c2cc(OC)c(OC)c(OC)c2)CCc2c(CO)noc2-3)cc1	0.0605 µM	0.245 µM	4.35 µM	24.5	0.458 µM	27.8	0.361 µM	16	0.323 µM	13	0.659 µM	45	2.94 µM	38.2	0.381 µM	> 100	0.371 µM	35.8 µM	0.455 µM	19.5
CC1Cc2ccccc2N1C(=O)Cc1nc(N2CCOCC2)cc(=O)[nH]1 (stereo not given)	20.9 µM and 27.7 µM	> 100 µM	5.13 µM and 18.5 µM	> 100	15.8 µM and 27.5 µM	> 100	15.8 µM and 28.1 µM	> 100	8.25 µM and 34.5 µM	> 100	3.94 µM and 8.73 µM	> 100	36.4 µM and 32.5 µM	> 100	27.2 µM and 72.5 µM	> 100	1.75 µM and 4.13 µM	33.7 µM and 49.8 µM	37.1 µM and 49.5 µM	> 100
Cc1ccccc1C(C(=O)NC1CCCCC1)N(C(=O)CNc1ncccc1F)c1cccc(F)c1 (stereo not given)	> 100 µM	> 100 µM	> 100 µM	> 100	> 100 µM	> 100	> 100 µM	> 100	> 100 µM	> 100	49.8 µM	> 100	38.3 µM	> 100	> 100 µM	> 100	27.2 µM	> 100 µM	28.9 µM	> 90.3
Cc1ccc(OCCOCCOCCOCCOCCOc2ccc(C)n(O)c2=S)c(=S)n1O	0.186 µM	52.6 µM	0.23 µM	> 48.7	0.0422 µM	> 100	0.124 µM	> 100	0.0585 µM	> 100	0.0494 µM	> 87.2	0.0576 µM	14.7	0.0544 µM	> 100	1.67 µM	74.6 µM	4.81 µM	40.5
C=CCOC(=O)Nc1cccn([C@H](CC(C)C)C(=O)NCCC(C)C)c1=O	> 100 µM	> 100 µM	> 100 µM	> 100	61.9 µM	> 100	> 100 µM	> 100	> 100 µM	> 100	> 100 µM	> 100	> 100 µM	> 100	> 100 µM	> 100	87.8 µM	> 100 µM	> 100 µM	> 100
C=C1C(=O)O[C@H]2[C@H]1CC/C(CNC(=O)/C=C/c1ccccc1F)=C\CC[C@@]1(C)O[C@@H]21	1.5 µM	6.34 µM	1.95 µM	6.19	1.55 µM	4.86	1.03 µM	2.26	1.22 µM	3.08	1.12 µM	2.53	2.42 µM	6.94	0.487 µM	1.66	2.42 µM	16.9 µM	1.7 µM	3.52
Cn1c(=O)c(Oc2ccc(F)cc2F)cc2cnc(NC3CCOCC3)nc21	> 25 µM	> 25 µM	> 25 µM	> 25	> 25 µM	> 25	> 25 µM	> 25	> 25 µM	> 25	> 25 µM	> 25	> 25 µM	> 25	> 25 µM	> 25	> 14.3 µM	> 25 µM	> 25 µM	> 25
Cc1ccsc1-c1ccc2c(c1)COC2(CCCN(C)C)c1ccc(F)cc1 (stereo not given)	1.68 µM	3.24 µM	1.76 µM	3.33	2.7 µM	8.43	3.17 µM	10.8	2.29 µM	8.45	3.48 µM	13.3	8.59 µM	25.3	1.78 µM	3.75	2.39 µM	9.07 µM	2.78 µM	7.48
COc1ccc(-c2cn(-c3cc(OC)c(OC)c(OC)c3)c(=O)[nH]2)cc1OC	> 100 µM	> 100 µM	> 100 µM	> 100	> 100 µM	> 100	> 100 µM	> 100	> 100 µM	> 100	> 100 µM	> 100	> 100 µM	> 100	> 100 µM	> 100	20.2 µM	> 100 µM	> 100 µM	> 100
O=c1oc2ccc(Br)cc2c(=O)n1-c1ccc(Cl)cc1F	1.35 µM	6.23 µM	0.522 µM	3.03	1.7 µM	5.22	1.86 µM	21.3	3.35 µM	> 34	1.22 µM	12.9	1.43 µM	5.11	1.84 µM	11.2	0.553 µM	5.69 µM	0.69 µM	4.5
Cc1sc2c(c1C)C(c1ccc(Cl)cc1)=N[C@@H](CC(=O)NCCCN1CCN(C)CC1)c1nnc(C)n1-2	0.621 µM	> 100 µM	> 30 µM	> 100	22.2 µM	> 100	> 100 µM	> 100	0.198 µM	> 100	17.1 µM	> 100		> 100	> 100 µM	> 100	0.216 µM	> 22.7 µM	> 44.6 µM	> 100
O=C1c2cc(F)ccc2-c2c1c1ccc([N+](=O)[O-])cc1c(=O)n2CCCBr	37.5 µM	> 100 µM	69.6 µM	> 100	2.8 µM	14.2	3.38 µM	> 100	19.6 µM	> 100	3.91 µM	> 100	22.6 µM	> 100	10.2 µM	> 100	> 100 µM	> 100 µM	> 100 µM	> 100
